Legend:
[1] = tested on: Trichophyton rubrum; assay: anti-fungal growth inhibition, T. rubrum; format: cell-based; settings: Trichophyton rubrum, 168 h
Description: Evaluation of anti-fungal activity. In a single well of the 96-well microplate, 10 μL of the testing compound is added into 190 μL of growth medium (Difco™ YM) containing an overnight culture of Trichophyton rubrum or Trichophyton mentagrophytes at a density of approximately 5×10^5 CFU. The testing compounds include dihydro-resveratrol and DR1 to DR11. Wells incubated with 10 μL 0.5% DMSO only (i.e. no testing compound) are served as the experimental control of fungal growth whilst those incubated with growth medium only (i.e. no fungi) are served as the negative control. […] The percentage of growth inhibition of T. mentagrophytes by the different concentrations of testing compounds is shown in Table 10 whilst the percentage of growth inhibition of T. rubrum is shown in Table 11. The images of T. mentagrophytes culture are captured post treatment of dihydro-resveratrol (100 μM) and DR8 (100 μM) when compared to the growth of experimental control and negative control (FIG. 30).

[2] = tested on: pancreatic acinar cells; format: cell-based; settings: rat, 24 h
Description: Functional intact acini were dissociated from pancreatic tissue using collagenase digestion with mild shearing forces. Acini were cultured in Dulbecco's modification of Eagle's medium (GIBCO) supplemented with 5% fetal bovine serum (GIBCO), 1% penicillin-streptomycin (GIBCO) in a 5% CO2, 95% air humidified atmosphere at 37° C. […] MTT reagent was added to the cells at the end of the 24-hour treatment period. After a 3-hour reaction time, MTT products were dissolved in DMSO and absorbance at 570 nm was taken.

[3] = tested on: skin color at the arms of individual human subjects; assay: skin colorimeter ITA° measurement after topical stilbenoid solution; format: in vivo
Description: To determine the skin color of the individual human subjects, the initial skin conditions at the arms of the individuals are tested by the skin colorimeter MPA 5 on day 0. The individual typology angle (ITA°) is calculated by the colorimeter based on the luminance (L*) and yellow-blue component (b*) values. The greater the ITA° value, the greater the skin whiteness [S. Del Bino and F. Bernerd. Variations in skin colour and the biological consequences of ultraviolet radiation exposure. British Journal of Dermatology 2013; 169 (Suppl. 3), 33-40]. In fact, skin colors are classified into 6 major divisions: very light, light, intermediate, tan, brown and dark as listed in Table 4. Two areas (2 cm×2 cm each) are selected as treated areas whereas regions surrounding the treated areas on the arms are regarded as control areas. A volume of 200 μL of the testing stilbenoids (2% by weight dissolved in ethanol) is applied to the designated area twice a day, day and night. At the end of the first week (day 7), individuals are tested with the skin colorimeter for recording the data about using the stilbenoids for 7 days. Again, at the end of the second week (day 14), individuals are tested with the skin colorimeter for recording the data about using the stilbenoids for 14 days.

[4] = tested on: human colorectal carcinoma HCT-116 cell line; assay: MTT cell viability assay, HCT-116; format: cell-based; settings: HCT-116 colorectal carcinoma, 24 h
Description: (§1) The human colorectal carcinoma HCT-116 cell line, human pancreatic ductal adenocarcinoma PANC-1 cell line, human melanoma A375 cell line and human embryonic kidney HEK293 cell line were purchased from the American Type Culture Collection. Cells were cultured in high glucose DMEM growth medium supplemented with 10% fetal bovine serum, penicillin and streptomycin (100 U) in a humidified atmosphere of 5% CO2, 95% air at 37° C. Upon the addition of dihydro-resveratrol (D-res) to the HCT-116, PANC-1, A375 or HEK293 cells seeded at a density of 8000 cells per well in a 96-well plate format, the viability of the testing cells was determined 24 h post treatment using the (3-(4,5-dimethylthiazol-2-yl)-2,5-diphenyltetrazolium bromide) tetrazolium (MTT) reduction assay and expressed as growth inhibition of 50% (GI50, Table 6).

[5] = tested on: PANC-1 human pancreatic ductal adenocarcinoma cells; assay: cell migration assay, PANC-1; format: cell-based; settings: PANC-1, 25 μM, 24-h treatment
[6] = tested on: human melanoma A375 cell line; assay: MTT cell viability assay, A375; format: cell-based; settings: A-375, 24 h
Description: as §1

[7] = tested on: cerulein-induced chronic pancreatitis; assay: cerulein-induced chronic pancreatitis in mice, oral treatment; format: in vivo, C57/BL6 mice
Description: Evaluation of biological activities. C57/BL6 mice aged 28 days weighing in the range of 20 to 25 g were randomly assigned into 4 groups of 6 to 8 individuals. The mice were housed with an ambient temperature of 23±2° C., a relative humidity of 60 to 80% and a 12-h light/dark cycle. Prior to the glucose tolerance test, the mice were starved overnight but allowed with free access to water. Experimental chronic pancreatitis was induced in the mice by four hourly i.p. injections of cerulein at the supramaximally stimulating dose (50 μg/kg) a day, 3 days a week, in a total of 6 weeks. The control group received injections of 0.9% saline instead of cerulein in the same volume and at same time intervals. The treatment groups given with cerulein and oral doses of dihydro-resveratrol (20 mg/kg/day) were designated as Cer+D-res. […] Thus, it concludes that an effective dosage of dihydro-resveratrol is at least 20 mg/kg/day. […] At the end of the 6-week experiment, mice were subjected to the intraperitoneal glucose tolerance test (IPGTT). Mice had been starved for 14 hours prior to the IPGTT, in which a 15% (w/v) glucose solution was injected to individual animals at 1.5 g glucose per kg body weight. About 1 μL of blood will be obtained from the tail vein, and blood glucose levels were monitored 30 min before (i.e. fasting level) and 10, 20, 30 and 60 min after glucose injection using a glucometer (Medisign, Korea). Upon scarification, pancreases were immediately removed, weighed, trimmed from fat and fixed in 4% paraformaldehyde-phosphate buffered saline overnight at 4° C. Samples were then processed, embedded in paraffin wax, sectioned and subjected to immunostaining.

[8] = tested on: A375 human melanoma cells; assay: cell migration assay, A375; format: cell-based; settings: A375, 25 μM, 24-h treatment

Structure (SMILES): Oc1ccc(CCc2cc(O)cc(O)c2)cc1 [Dihydro-resveratrol, trans-3,5,4′-trihydroxybibenzyl]
- inhibition at 25 µM ([1]; read-out: Inhibition rate (25 μM)): 2.75%
- inhibition at 50 µM ([1]; read-out: Inhibition rate (50 μM)): 6.84%
- inhibition at 100 µM ([1]; read-out: Inhibition rate (100 μM)): 22.5%
- cytotoxicity (MTT, mitochondrial metabolic rates) [2]: approximately 500 μM
- whitening effect on skin ([3]; 2% by weight in ethanol, topical twice a day, most individuals): Overt whitening effect
- ITA° measurement ([3]; Individual No. 1, day 7, 2% solution topical): 49.0 ± 1.732 °
- ITA° measurement ([3]; Individual No. 1, day 14, 2% solution topical): 52.4 ± 1.166 °
- ITA° measurement ([3]; Individual No. 2, day 7, 2% solution topical): 41.1 ± 3.391 °
- ITA° measurement ([3]; Individual No. 2, day 14, 2% solution topical): 49.8 ± 4.630 °
- ITA° measurement ([3]; Individual No. 3, day 7, 2% solution topical): 35.0 ± 1.000 °
- ITA° measurement ([3]; Individual No. 3, day 14, 2% solution topical): 33.8 ± 0.837 °
- ITA° measurement ([3]; Individual No. 4, day 7, 2% solution topical): 26.8 ± 2.371 °
- ITA° measurement ([3]; Individual No. 4, day 14, 2% solution topical): 35.2 ± 2.103 °
- ITA° measurement ([3]; Individual No. 5, day 7, 2% solution topical): 25.6 ± 1.817 °
- ITA° measurement ([3]; Individual No. 5, day 14, 2% solution topical): 27.8 ± 1.934 °
- ITA° measurement ([3]; Individual No. 6, day 7, 2% solution topical): 26.4 ± 2.649 °
- ITA° measurement ([3]; Individual No. 6, day 14, 2% solution topical): 34.6 ± 0.927 °
- ITA° measurement ([3]; Individual No. 7, day 7, 2% solution topical): 21.2 ± 0.837 °
- ITA° measurement ([3]; Individual No. 7, day 14, 2% solution topical): 23.8 ± 2.634 °
- ITA° measurement ([3]; Individual No. 8, day 7, 2% solution topical): 14.0 ± 2.345 °
- ITA° measurement ([3]; Individual No. 8, day 14, 2% solution topical): 16.2 ± 1.483 °
- ITA° measurement ([3]; Individual No. 9, day 7, 2% solution topical): −5.2 ± 0.837 °
- ITA° measurement ([3]; Individual No. 9, day 14, 2% solution topical): −2.2 ± 0.447 °
- GI50 [4]: 102 ± 5.21 µM
- migratory ability [5]: significant reduction in the migratory ability
- GI50 [6]: 107 ± 3.37 µM
- fibrosis formation, 50 mg/kg/day versus 20 mg/kg/day [7]: no statistically significant difference
- pancreatic beta-cell area (insulin immunofluorescence) ([7]; 20 mg/kg/day oral): restoration of beta-cell area
- FN1 deposition in pancreatic parenchyma ([7]; 20 mg/kg/day oral, 3 weeks): reduces such deposition
- impaired glucose tolerance (IPGTT) ([7]; 20 mg/kg/day oral, 3 weeks): significantly rectified
- adverse effect ([7]; 50 mg/kg/day): no adverse effect
- migratory ability [8]: significant reduction in the migratory ability

Source: patent US10351500B2, “Method of using of dihydro-resveratrol or its stilbenoid derivatives and/or chemical variants as antimicrobial agents” (Hong Kong Baptist University, priority 2015, dated 2019)
